Read-outs that look alike come from different tables or passages of the source. Positions of bridges follow the written chain, without caps; N, C: chain ends. Non-standard residues stand in square brackets, D forms with d. Residues, ends and D or L forms follow the SMILES beside them. Nva = CCC[C@H](N)C(=O)O; Abu = CC[C@H](N)C(=O)O

The target of one series is hNav1.3 (Homo sapiens, UniProt Q9NY46). The experiment in a line: cell-based. The settings on record: IonWorks Quattro, read-out: IWQ Use Nav1.3. In general terms: Patch clamp records ionic current or voltage across a cell membrane.
Sequence of hNav1.3 (Q9NY46 whole entry, looked up): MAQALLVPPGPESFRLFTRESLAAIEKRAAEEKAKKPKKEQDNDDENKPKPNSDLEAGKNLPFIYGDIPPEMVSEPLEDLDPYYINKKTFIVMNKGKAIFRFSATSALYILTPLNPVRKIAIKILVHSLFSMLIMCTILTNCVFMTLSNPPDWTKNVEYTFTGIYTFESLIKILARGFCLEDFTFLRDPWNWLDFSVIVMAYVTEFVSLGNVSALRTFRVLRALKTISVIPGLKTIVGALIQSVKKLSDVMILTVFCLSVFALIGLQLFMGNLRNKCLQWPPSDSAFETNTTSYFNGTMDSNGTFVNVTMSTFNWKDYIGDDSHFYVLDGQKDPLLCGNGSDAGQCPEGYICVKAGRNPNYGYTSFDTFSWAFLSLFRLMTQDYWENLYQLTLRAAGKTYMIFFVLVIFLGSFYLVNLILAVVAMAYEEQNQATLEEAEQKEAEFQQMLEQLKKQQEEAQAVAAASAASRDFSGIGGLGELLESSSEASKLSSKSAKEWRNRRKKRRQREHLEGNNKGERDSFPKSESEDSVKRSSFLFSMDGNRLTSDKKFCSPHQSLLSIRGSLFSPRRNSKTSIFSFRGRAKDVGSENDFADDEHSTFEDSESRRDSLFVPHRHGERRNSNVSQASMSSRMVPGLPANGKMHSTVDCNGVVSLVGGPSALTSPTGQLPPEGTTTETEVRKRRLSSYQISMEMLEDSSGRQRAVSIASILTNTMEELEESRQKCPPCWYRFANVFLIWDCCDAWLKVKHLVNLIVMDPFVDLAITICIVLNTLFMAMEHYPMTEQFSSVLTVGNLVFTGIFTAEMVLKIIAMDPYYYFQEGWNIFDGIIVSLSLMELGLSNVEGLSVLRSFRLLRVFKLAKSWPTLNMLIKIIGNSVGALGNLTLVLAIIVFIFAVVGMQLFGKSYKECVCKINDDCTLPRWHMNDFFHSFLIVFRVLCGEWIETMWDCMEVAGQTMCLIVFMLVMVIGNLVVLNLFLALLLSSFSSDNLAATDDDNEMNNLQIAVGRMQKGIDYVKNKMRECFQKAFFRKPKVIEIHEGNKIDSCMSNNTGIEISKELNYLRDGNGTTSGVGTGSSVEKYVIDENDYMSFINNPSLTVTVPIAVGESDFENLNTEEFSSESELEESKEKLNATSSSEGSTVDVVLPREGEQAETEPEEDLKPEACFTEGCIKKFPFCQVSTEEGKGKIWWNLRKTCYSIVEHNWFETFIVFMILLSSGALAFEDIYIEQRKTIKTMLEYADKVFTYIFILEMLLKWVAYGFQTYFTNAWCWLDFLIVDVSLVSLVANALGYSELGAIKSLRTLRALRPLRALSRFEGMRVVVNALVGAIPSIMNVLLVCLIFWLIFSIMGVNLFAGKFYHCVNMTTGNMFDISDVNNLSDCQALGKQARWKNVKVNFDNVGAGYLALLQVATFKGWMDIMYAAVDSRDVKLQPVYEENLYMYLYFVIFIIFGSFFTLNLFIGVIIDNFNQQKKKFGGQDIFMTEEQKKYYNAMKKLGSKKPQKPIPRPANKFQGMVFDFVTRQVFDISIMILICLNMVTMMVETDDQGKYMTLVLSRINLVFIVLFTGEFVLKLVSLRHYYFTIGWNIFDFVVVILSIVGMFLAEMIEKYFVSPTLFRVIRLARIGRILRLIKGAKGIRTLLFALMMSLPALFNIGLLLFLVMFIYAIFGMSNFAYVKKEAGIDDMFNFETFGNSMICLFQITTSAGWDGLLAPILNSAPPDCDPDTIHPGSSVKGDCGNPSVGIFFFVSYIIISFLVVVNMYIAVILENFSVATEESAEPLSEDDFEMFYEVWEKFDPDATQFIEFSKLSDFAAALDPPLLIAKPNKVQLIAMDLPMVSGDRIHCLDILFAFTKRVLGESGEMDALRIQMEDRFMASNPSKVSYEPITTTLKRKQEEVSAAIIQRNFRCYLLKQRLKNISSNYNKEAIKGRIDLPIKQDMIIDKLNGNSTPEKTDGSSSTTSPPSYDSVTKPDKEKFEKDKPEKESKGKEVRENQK
A further series has as its target hNav1.4 (Homo sapiens, UniProt P35499). Kind of series: cell-based. The settings on record: IonWorks Quattro, read-out: IWQ Use Nav1.4.
A further series concerns the target hNav1.7 (Homo sapiens, UniProt Q15858). Kind of series: cell-based. As to conditions: for IC50: IonWorks Quattro, read-out: IWQ Use Nav1.7. In kind it is cell-based.
For another series, the target named is hNav1.5 (Homo sapiens, UniProt Q14524). Kind of series: cell-based. The settings on record: IonWorks Quattro, read-out: IWQ Use Nav1.5.
Sequence of hNav1.5 (Q14524 whole entry, looked up): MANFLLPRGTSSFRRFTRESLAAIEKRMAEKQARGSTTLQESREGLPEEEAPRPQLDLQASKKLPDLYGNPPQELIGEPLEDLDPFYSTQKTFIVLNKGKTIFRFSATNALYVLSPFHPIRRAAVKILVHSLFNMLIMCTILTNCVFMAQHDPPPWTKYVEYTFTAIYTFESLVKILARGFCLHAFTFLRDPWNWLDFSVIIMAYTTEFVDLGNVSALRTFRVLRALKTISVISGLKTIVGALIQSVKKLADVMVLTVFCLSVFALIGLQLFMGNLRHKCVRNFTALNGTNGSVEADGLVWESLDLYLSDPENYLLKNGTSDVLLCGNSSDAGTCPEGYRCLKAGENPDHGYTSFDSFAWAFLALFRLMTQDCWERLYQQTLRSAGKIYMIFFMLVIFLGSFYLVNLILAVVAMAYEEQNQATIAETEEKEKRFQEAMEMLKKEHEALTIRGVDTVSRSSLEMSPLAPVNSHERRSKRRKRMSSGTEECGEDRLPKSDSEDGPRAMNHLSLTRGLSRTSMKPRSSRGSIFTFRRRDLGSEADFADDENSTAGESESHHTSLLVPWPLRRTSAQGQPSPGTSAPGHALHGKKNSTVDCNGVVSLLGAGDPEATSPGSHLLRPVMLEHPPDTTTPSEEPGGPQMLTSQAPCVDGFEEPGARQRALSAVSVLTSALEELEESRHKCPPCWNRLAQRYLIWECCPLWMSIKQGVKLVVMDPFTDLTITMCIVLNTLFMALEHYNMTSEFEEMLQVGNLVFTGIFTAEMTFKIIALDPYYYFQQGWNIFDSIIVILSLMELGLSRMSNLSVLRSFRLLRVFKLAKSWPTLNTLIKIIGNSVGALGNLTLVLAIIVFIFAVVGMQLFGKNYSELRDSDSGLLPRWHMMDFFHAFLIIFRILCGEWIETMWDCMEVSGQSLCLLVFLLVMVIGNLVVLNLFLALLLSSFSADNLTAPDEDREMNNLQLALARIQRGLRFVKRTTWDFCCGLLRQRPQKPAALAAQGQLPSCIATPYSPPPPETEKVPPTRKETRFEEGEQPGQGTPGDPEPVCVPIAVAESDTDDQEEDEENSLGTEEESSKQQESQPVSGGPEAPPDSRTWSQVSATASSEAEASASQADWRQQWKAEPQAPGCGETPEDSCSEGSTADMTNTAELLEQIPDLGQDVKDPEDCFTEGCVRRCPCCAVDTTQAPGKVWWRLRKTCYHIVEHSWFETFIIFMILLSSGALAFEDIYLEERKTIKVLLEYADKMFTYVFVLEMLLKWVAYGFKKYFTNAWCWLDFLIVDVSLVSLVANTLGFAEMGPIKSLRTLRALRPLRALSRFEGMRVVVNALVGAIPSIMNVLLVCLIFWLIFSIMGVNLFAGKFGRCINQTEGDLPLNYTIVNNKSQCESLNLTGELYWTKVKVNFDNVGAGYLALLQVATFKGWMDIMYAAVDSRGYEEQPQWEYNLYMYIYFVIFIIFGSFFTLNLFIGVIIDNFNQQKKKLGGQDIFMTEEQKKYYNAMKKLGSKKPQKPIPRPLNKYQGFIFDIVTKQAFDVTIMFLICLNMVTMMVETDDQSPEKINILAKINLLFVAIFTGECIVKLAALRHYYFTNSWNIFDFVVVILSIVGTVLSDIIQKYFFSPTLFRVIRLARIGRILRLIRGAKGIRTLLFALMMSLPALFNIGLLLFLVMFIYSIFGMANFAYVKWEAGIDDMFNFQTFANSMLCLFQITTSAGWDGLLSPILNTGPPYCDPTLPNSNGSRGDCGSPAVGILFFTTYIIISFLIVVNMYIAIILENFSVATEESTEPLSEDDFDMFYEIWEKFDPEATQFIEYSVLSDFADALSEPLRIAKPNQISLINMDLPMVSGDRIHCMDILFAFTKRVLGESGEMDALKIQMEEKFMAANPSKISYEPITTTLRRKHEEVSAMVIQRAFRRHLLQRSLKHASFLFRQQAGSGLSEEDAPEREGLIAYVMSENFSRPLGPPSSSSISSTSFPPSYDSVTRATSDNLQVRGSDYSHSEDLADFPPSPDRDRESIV
In series [1] the test system is locomotor activity in male CD-1 mice. As to conditions: 5 mg/kg s.c.; for total basic movement / total fine movement / total rearing / total time rearing: later studies (FIGS. 99-110), 1-hour pre-treatment.
Where [2] appears, read: clamped to −110 mV, depolarized to −10 mV, 5 min after compound, n=2.

As for `CCC[C@H](NC(=O)CNC(=O)[C@H](CC(C)C)NC(=O)[C@H](CC)NC(=O)[C@@H](N)CC(=O)O)C(=O)N[C@@H](CC(C)C)C(=O)N[C@@H](CCCNC(=N)N)C(=O)N[C@@H](CCCCN)C(=O)N[C@H]1CSSC[C@@H]2NC(=O)[C@H](C(C)C)NC(=O)[C@H](CC(C)C)NC(=O)[C@H](CC(N)=O)NC(=O)[C@@H]3CCCN3C(=O)[C@H](CCCNC(=N)N)NC(=O)[C@H](CC)NC(=O)[C@H](CSSC[C@@H](C(=O)N[C@@H](CCCCN)C(=O)N[C@@H](Cc3ccc(O)cc3)C(=O)N[C@H](C(=O)N[C@@H](Cc3ccccc3)C(N)=O)C(C)C)NC(=O)[C@H](Cc3c[nH]c4ccccc34)NC(=O)[C@H](CCC(=O)O)NC(=O)[C@H](Cc3c[nH]cn3)NC(=O)[C@H]([C@@H](C)O)NC(=O)[C@H](CCCNC(=N)N)NC(=O)[C@H](CO)NC2=O)NC(=O)[C@H](CCCCN)NC(=O)[C@H](CC(=O)O)NC(=O)[C@H](CC(N)=O)NC(=O)[C@H](CC(=O)O)NC(=O)[C@@H]2CCCN2C(=O)[C@H]([C@@H](C)CC)NC1=O` [compound 717] (H-D[Abu]LG[Nva]LRKCIPDNDKC[Abu]RPNLVCSRTHEWCKYVF-NH2; disulfide 9-23, 16-30), the IC50 is > 5 µM at hNav1.3 (use-dependent block, hNav1.3); > 50 µM on hNav1.4 (use-dependent block, hNav1.4); > 5 µM on hNav1.7 (use-dependent block, hNav1.7); > 50 µM on hNav1.5 (use-dependent block, hNav1.5).
As for `CC[C@H](C)[C@@H]1NC(=O)[C@@H]2CSSC[C@@H]3NC(=O)[C@H](C(C)C)NC(=O)[C@H](CC(C)C)NC(=O)[C@H](CC(N)=O)NC(=O)[C@@H]4CCCN4C(=O)[C@H](CCCNC(=N)N)NC(=O)[C@H](CSSC[C@H](NC(=O)[C@H](CC(=O)O)NC(=O)[C@H](CO)NC(=O)CN)C(=O)N[C@@H](CC(C)C)C(=O)NCC(=O)N[C@@H](C)C(=O)N[C@@H](CC(C)C)C(=O)N[C@@H](CCCNC(=N)N)C(=O)N[C@@H](CCCCN)C(=O)N2)NC(=O)[C@H](CSSC[C@@H](C(=O)N[C@@H](CCCCN)C(=O)N[C@@H](Cc2ccc(O)cc2)C(=O)N[C@H](C(=O)N[C@@H](Cc2ccccc2)C(=O)O)C(C)C)NC(=O)[C@H](Cc2c[nH]c4ccccc24)NC(=O)[C@H](CCCNC(=N)N)NC(=O)[C@H](Cc2c[nH]cn2)NC(=O)[C@H]([C@@H](C)O)NC(=O)[C@H](CCCNC(=N)N)NC(=O)[C@H](CO)NC3=O)NC(=O)[C@H](CCCCN)NC(=O)[C@H](CC(=O)O)NC(=O)[C@H](CC(N)=O)NC(=O)[C@H](CC(=O)O)NC(=O)[C@@H]2CCCN2C1=O` [compound 822] (H-GSDCLGALRKCIPDNDKCCRPNLVCSRTHRWCKYVF-OH; disulfide 4-19, 11-25, 18-32), the IC50 was 3.7 µM at hNav1.3 (use-dependent block, hNav1.3); > 5 µM at hNav1.4 (use-dependent block, hNav1.4); 3.7 µM on hNav1.7 (use-dependent block, hNav1.7); > 5 µM at hNav1.5 (use-dependent block, hNav1.5). For the same compound, the Nav1.7/Nav1.3 at hNav1.7 (ratio of IWQ Use values, Nav1.7 over Nav1.3) is listed as 1.0.
Consider `CC[C@H](C)[C@@H]1NC(=O)[C@@H]2CSSC[C@@H]3NC(=O)[C@H](C(C)C)NC(=O)[C@H](CC(C)C)NC(=O)[C@H](CC(N)=O)NC(=O)[C@@H]4CCCN4C(=O)[C@H](CCCNC(=N)N)NC(=O)[C@H](CSSC[C@H](NC(=O)[C@@H](N)CC(=O)O)C(=O)N[C@@H](CC(C)C)C(=O)NCC(=O)N[C@@H](Cc4ccccc4)C(=O)N[C@@H](CCSC)C(=O)N[C@@H](CCCNC(=N)N)C(=O)N[C@@H](CCCCN)C(=O)N2)NC(=O)[C@H](CSSC[C@@H](C(=O)N[C@@H](CCCCN)C(=O)N[C@@H](Cc2ccc(O)cc2)C(=O)N[C@H](C(=O)N[C@@H](Cc2ccccc2)C(N)=O)C(C)C)NC(=O)[C@H](Cc2c[nH]c4ccccc24)NC(=O)[C@H](CCC(=O)O)NC(=O)[C@H](Cc2cnc[nH]2)NC(=O)[C@H]([C@@H](C)O)NC(=O)[C@H](CCCNC(=N)N)NC(=O)[C@H](CO)NC3=O)NC(=O)[C@H](CCCCN)NC(=O)[C@H](CC(=O)O)NC(=O)[C@H](CC(N)=O)NC(=O)[C@H](CC(=O)O)NC(=O)[C@@H]2CCCN2C1=O` [[Glu28]GpTx-1(1-34)] (H-DCLGFMRKCIPDNDKCCRPNLVCSRTHEWCKYVF-NH2; disulfide 2-17, 9-23, 16-30), for which, in series [1], the “locomotor activity in the open field analysis” value is listed as “significantly reduced locomotor activity”, the total basic movement result is reported as “significantly reduced”, the total fine movement result was “significantly reduced” and the total rearing entry was “significantly reduced”. Moreover, the total time rearing entry in series [1] is reported as “significantly reduced”.
Regarding `CC[C@H](C)[C@@H]1NC(=O)[C@@H]2CSSC[C@@H]3NC(=O)[C@H](C(C)C)NC(=O)[C@H](CC(C)C)NC(=O)[C@H](CC(N)=O)NC(=O)[C@@H]4CCCN4C(=O)[C@H](CCCNC(=N)N)NC(=O)[C@H](CSSC[C@H](NC(=O)[C@@H](N)CC(=O)O)C(=O)N[C@@H](CC(C)C)C(=O)NCC(=O)N[C@@H](Cc4ccccc4)C(=O)N[C@@H](CCSC)C(=O)N[C@@H](CCCNC(=N)N)C(=O)N[C@@H](CCCCN)C(=O)N2)NC(=O)[C@H](CSSC[C@@H](C(=O)N[C@@H](CCCCN)C(=O)N[C@@H](Cc2ccc(O)cc2)C(=O)N[C@H](C(=O)N[C@@H](Cc2ccccc2)C(N)=O)C(C)C)NC(=O)[C@H](CCC(=O)O)NC(=O)[C@H](CCCCN)NC(=O)[C@H](Cc2cnc[nH]2)NC(=O)[C@H]([C@@H](C)O)NC(=O)[C@H](CCCNC(=N)N)NC(=O)[C@H](CO)NC3=O)NC(=O)[C@H](CCCCN)NC(=O)[C@H](CC(=O)O)NC(=O)[C@H](CC(N)=O)NC(=O)[C@H](CC(=O)O)NC(=O)[C@@H]2CCCN2C1=O` [[Glu29]GpTx-1(1-34)] (H-DCLGFMRKCIPDNDKCCRPNLVCSRTHKECKYVF-NH2; disulfide 2-17, 9-23, 16-30), in series [1], the total basic movement result is “did not significantly decrease”, the total fine movement result is recorded as “not significantly affected”, the total rearing result is “did not significantly decrease” and the total time rearing entry was “not significantly affected”.
Consider `CC[C@@H]1NC(=O)[C@@H]2CSSC[C@@H](C(=O)N[C@@H](CCCCN)C(=O)N[C@@H](Cc3ccc(O)cc3)C(=O)N[C@H](C(=O)N[C@@H](Cc3ccccc3)C(N)=O)C(C)C)NC(=O)[C@H](Cc3c[nH]c4ccccc34)NC(=O)[C@H](CCC(=O)O)NC(=O)[C@H](Cc3c[nH]cn3)NC(=O)[C@H]([C@@H](C)O)NC(=O)[C@H](CCCNC(=N)N)NC(=O)[C@H](CO)NC(=O)[C@H](CSSC[C@H](NC(=O)[C@H](CCCCN)NC(=O)[C@H](CCCNC(=N)N)NC(=O)[C@H](CC(C)C)NC(=O)[C@H](C)NC(=O)CNC(=O)[C@H](CC(C)C)NC(=O)[C@H](CC)NC(=O)[C@@H](N)CC(=O)O)C(=O)N[C@@H]([C@@H](C)CC)C(=O)N3CCC[C@H]3C(=O)N[C@@H](CC(=O)O)C(=O)N[C@@H](CC(N)=O)C(=O)N[C@@H](CC(=O)O)C(=O)N[C@@H](CCCCN)C(=O)N2)NC(=O)[C@H](C(C)C)NC(=O)[C@H](CC(C)C)NC(=O)[C@H](CC(N)=O)NC(=O)[C@@H]2CCCN2C(=O)[C@H](CCCNC(=N)N)NC1=O` [compound 719] (H-D[Abu]LGALRKCIPDNDKC[Abu]RPNLVCSRTHEWCKYVF-NH2; disulfide 9-23, 16-30), for which the IC50 was > 5 µM at hNav1.3 (use-dependent block, hNav1.3); > 50 µM at hNav1.4 (use-dependent block, hNav1.4); 4.3 µM at hNav1.7 (use-dependent block, hNav1.7); > 50 µM at hNav1.5 (use-dependent block, hNav1.5).
On to `CC(C)C[C@@H]1NC(=O)[C@@H](NC(=O)[C@@H](N)CC(=O)O)CSSC[C@@H]2NC(=O)[C@@H]3CSSC[C@@H](C(=O)N[C@@H](CCCCN)C(=O)N[C@@H](Cc4ccc(O)cc4)C(=O)N[C@@H](CCCCN)C(=O)N[C@@H](CC(C)C)C(=O)N[C@@H](Cc4c[nH]c5ccccc45)C(=O)O)NC(=O)[C@H](Cc4c[nH]c5ccccc45)NC(=O)[C@H](CCCCN)NC(=O)[C@H](CC(=O)O)NC(=O)[C@H](CCCNC(=N)N)NC(=O)[C@H](CCCNC(=N)N)NC(=O)[C@H](CC(N)=O)NC(=O)[C@H](CSSC[C@H](NC(=O)CNC(=O)[C@H](CCCCN)NC(=O)[C@H](Cc4ccccc4)NC(=O)[C@H](Cc4c[nH]c5ccccc45)NC(=O)CNC1=O)C(=O)N[C@@H](CC(=O)O)C(=O)N1CCC[C@H]1C(=O)N[C@@H](CC(=O)O)C(=O)N[C@@H](CC(N)=O)C(=O)N[C@@H](CC(=O)O)C(=O)N[C@@H](CCCCN)C(=O)N3)NC(=O)[C@H](CCCCN)NC(=O)[C@H](Cc1ccc(O)cc1)NC(=O)[C@H](CC(N)=O)NC(=O)[C@H](CCC(=O)O)NC2=O` [SEQ ID NO: 474] (H-DCLGWFKGCDPDNDKCCENYKCNRRDKWCKYKLW-OH; disulfide 2-17, 9-22, 16-29), for which the IC50 was found to be 1.4 µM on hNav1.3 (setting [2]), 10.5 µM on hNav1.4 (setting [2]), 4 µM at hNav1.7 (setting [2]) and 7.9 µM at hNav1.5 (setting [2]).

For the origin of these results see US9340590B2 (priority 2011, dated 2016).
